Literature values in patent US4937073A, “Reformed vetiver oil and vetiverol, process for preparing the same, and perfumery composition comprising the same” (Kao Corporation, priority 1988, dated 1990).
Read-outs that look alike come from different tables or passages of the source.

pKa: 2.82
pKa (listed as Tartaric acid): 1.04
Compound: O=C(O)C(O)C(O)C(=O)O (centres unmarked) [tartaric acid]
